ChEMBL document CHEMBL5620430, “Design, synthesis and biological evaluation of indazole derivatives as selective covalent inhibitors of FGFR4 in wild-type and gatekeeper mutants” (Eur J Med Chem, 2023)
Calls of active or inactive are those of the source. No cut-off for these calls is given here.

Columns and labels:
Huh-7 [1] = experiment: cells; conditions: Homo sapiens
Description: Antiproliferative activity against human Huh-7 cells measured after 24 to 48 hrs by MTT assay

[2] = target: Fibroblast growth factor receptor 4 (Homo sapiens, UniProt P22455)
Description: Inhibition of FGFR4 (445 to 753 residues) (unknown origin) expressed in Escherichia coli

[3] = target: Fibroblast growth factor receptor 1 (Homo sapiens, UniProt P11362)
Description: Inhibition of FGFR1 (unknown origin)

[4] = Antiproliferative activity against human L02 cells measured after 24 to 48 hrs by MTT assay; format: toxicity, cell-based
BaF3 [5] = experiment: cells; conditions: Mus musculus
Description: Antiproliferative activity against mouse BaF3 cells harbouring ETV6-FGFR4-V550L mutant measured after 24 to 48 hrs by MTT assay

[6] = Metabolic stability in liver microsomes (unknown origin) assessed as half life; format: ADME, Microsome
Huh-7 [7] = experiment: Inhibition of colony formation in human Huh-7 cells assessed as reduction in number of colonies at 270 nM measured for 12 days; format: functional, cell-based; conditions: time 12.0 day
Hep 3B2 = experiment: Antiproliferative activity against human Hep3B cells measured after 24 to 48 hrs by MTT assay; format: functional, cell-based
BaF3 [8] = experiment: cells; conditions: Mus musculus; remark: listed apart in the source
Description: Antiproliferative activity against mouse BaF3 cells harbouring ETV6-FGFR4-N535K mutant measured after 24 to 48 hrs by MTT assay

HepG2 = experiment: Antiproliferative activity against human HepG2 cells measured after 24 to 48 hrs by MTT assay; format: functional, cell-based

Chain of Fibroblast growth factor receptor 4 (P22455 whole entry): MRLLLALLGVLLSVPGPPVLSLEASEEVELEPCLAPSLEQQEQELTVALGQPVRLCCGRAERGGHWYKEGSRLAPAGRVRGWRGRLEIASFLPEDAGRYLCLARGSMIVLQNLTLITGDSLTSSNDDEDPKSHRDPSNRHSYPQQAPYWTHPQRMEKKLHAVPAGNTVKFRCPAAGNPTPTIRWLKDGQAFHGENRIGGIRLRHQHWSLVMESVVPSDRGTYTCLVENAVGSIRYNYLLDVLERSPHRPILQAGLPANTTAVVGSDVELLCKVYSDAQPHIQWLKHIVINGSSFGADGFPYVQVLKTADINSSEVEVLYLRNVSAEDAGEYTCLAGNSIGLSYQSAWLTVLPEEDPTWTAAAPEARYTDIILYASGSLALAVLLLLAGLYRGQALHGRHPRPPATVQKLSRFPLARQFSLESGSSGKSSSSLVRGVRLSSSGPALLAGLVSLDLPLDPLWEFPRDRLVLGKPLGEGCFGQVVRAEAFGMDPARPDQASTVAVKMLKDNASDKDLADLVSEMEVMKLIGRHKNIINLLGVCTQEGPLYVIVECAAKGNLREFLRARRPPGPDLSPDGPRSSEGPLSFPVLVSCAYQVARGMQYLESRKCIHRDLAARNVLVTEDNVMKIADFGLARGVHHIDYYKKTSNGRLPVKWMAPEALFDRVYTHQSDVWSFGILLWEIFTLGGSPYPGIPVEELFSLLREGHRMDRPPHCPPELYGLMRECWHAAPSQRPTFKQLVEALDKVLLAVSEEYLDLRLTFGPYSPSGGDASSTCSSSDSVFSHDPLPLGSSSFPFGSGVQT
Chain of Fibroblast growth factor receptor 1 (P11362 whole entry): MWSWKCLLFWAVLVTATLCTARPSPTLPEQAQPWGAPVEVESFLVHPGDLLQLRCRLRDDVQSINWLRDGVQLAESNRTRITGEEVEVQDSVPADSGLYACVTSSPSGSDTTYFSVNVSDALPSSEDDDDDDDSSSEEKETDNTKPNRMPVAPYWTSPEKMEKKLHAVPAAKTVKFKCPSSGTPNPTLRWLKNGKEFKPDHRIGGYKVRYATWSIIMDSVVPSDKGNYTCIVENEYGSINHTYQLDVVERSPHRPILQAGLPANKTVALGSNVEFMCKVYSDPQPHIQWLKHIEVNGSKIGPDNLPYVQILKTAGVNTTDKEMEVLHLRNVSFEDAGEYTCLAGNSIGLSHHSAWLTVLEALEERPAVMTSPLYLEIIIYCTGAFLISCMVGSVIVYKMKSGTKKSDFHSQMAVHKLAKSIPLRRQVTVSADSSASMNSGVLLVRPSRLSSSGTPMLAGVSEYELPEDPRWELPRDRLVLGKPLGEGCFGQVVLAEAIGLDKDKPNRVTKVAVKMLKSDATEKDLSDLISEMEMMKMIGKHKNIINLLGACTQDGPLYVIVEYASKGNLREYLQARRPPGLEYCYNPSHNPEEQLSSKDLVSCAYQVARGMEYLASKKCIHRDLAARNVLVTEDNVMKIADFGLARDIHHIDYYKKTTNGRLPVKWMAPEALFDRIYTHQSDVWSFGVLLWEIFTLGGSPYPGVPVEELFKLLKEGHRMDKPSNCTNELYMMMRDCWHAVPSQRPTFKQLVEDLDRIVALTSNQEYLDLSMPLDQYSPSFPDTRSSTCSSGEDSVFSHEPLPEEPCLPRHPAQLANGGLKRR

| SMILES | IC50 (Huh-7 [1]) | IC50 [2] | IC50 [3] | also measured |
| --- | --- | --- | --- | --- |
| C=CC(=O)Nc1ccccc1-c1n[nH]c2ccc(OC(C)c3c(Cl)cccc3Cl)cc12 (stereo not drawn) | > 3000 nM | 252 nM | – | – |
| C=CC(=O)Nc1ccccc1-c1n[nH]c2ccc(OCc3ccncc3)cc12 | > 3000 nM | 243 nM | – | – |
| C=CC(=O)Nc1ccc(N2CCN(C)CC2)cc1-c1n[nH]c2ccc(O[C@H](C)c3c(Cl)cncc3Cl)cc12 | 15 nM | 2.1 nM | > 3000 nM | IC50 [4]: 4280 nM; IC50 (BaF3 [5]): 1 nM; half-life [6]: 2.41 min |
| C=CC(=O)Nc1ccc(F)cc1-c1n[nH]c2ccc(O[C@H](C)c3c(Cl)cncc3Cl)cc12 | 324 nM | 3.2 nM | > 3000 nM | – |
| C=CC(=O)Nc1cc2c(cc1-c1n[nH]c3ccc(O[C@H](C)c4c(Cl)cncc4Cl)cc13)CN(CCOC)C2 | 193 nM | 3.2 nM | > 3000 nM | – |
| C=CC(=O)Nc1ccccc1-c1n[nH]c2ccc(OCc3c(Cl)cncc3Cl)cc12 | 754 nM | 27 nM | > 3000 nM | – |
| C=CC(=O)Nc1cc2c(cc1-c1n[nH]c3ccc(O[C@H](C)c4c(Cl)cncc4Cl)cc13)CCN(CCO)C2 | 30 nM | 2.6 nM | > 3000 nM | IC50 [4]: > 10000 nM; IC50 (BaF3 [5]): 1 nM; half-life [6]: 3.04 min |
| C=CC(=O)Nc1cc2c(cc1-c1n[nH]c3ccc(O[C@H](C)c4c(Cl)cncc4Cl)cc13)CN(CCO)C2 | 67 nM | 1.9 nM | > 3000 nM | – |
| C=CC(=O)Nc1ccccc1-c1n[nH]c2ccc(OCc3ccccn3)cc12 | > 3000 nM | 481 nM | – | – |
| C=CC(=O)Nc1cc(N2CCN(C)CC2)ccc1-c1n[nH]c2ccc(O[C@H](C)c3c(Cl)cncc3Cl)cc12 | 12 nM | 1.8 nM | > 3000 nM | IC50 [4]: 3940 nM; IC50 (BaF3 [5]): 2 nM; half-life [6]: 3.8 min |
| C=CC(=O)Nc1cc2c(cc1-c1n[nH]c3ccc(O[C@H](C)c4c(Cl)cncc4Cl)cc13)CN(C)CC2 | 132 nM | 3.1 nM | > 3000 nM | – |
| C=CC(=O)Nc1cc2c(cc1-c1n[nH]c3ccc(O[C@H](C)c4c(Cl)cncc4Cl)cc13)CN(CCOC)CC2 | 753 nM | 9.7 nM | > 3000 nM | – |
| C=CC(=O)Nc1cccc(-c2n[nH]c3ccc(O[C@H](C)c4c(Cl)cncc4Cl)cc23)c1 | 2440 nM | 1200 nM | > 3000 nM | – |
| C=CC(=O)Nc1ccccc1-c1n[nH]c2ccc(OC(C)c3c(F)cncc3F)cc12 (stereo not drawn) | 1270 nM | 42 nM | > 3000 nM | – |
| C=CC(=O)Nc1cc2c(cc1-c1n[nH]c3ccc(O[C@H](C)c4c(Cl)cncc4Cl)cc13)CCN(CCOC)C2 | 54 nM | 2.5 nM | > 3000 nM | – |
| C=CC(=O)Nc1ccccc1-c1n[nH]c2ccc(OC(C)c3ccncc3)cc12 (stereo not drawn) | > 3000 nM | 169 nM | > 3000 nM | – |
| C=CC(=O)Nc1ccccc1-c1n[nH]c2ccc(OCc3cccnc3)cc12 | > 3000 nM | 83 nM | > 3000 nM | – |
| C=CC(=O)N[C@H]1CCOC[C@H]1Nc1ncc2cc(-c3c(Cl)c(OC)cc(OC)c3Cl)ccc2n1 [FISOGATINIB] | – | 3.9 nM | 1030 nM | IC50 [4]: > 10000 nM; IC50 (BaF3 [5]): 396 nM; inhibition (Huh-7 [7]): Active; IC50 (Hep 3B2): 46 nM; IC50 (BaF3 [8]): 528 nM; IC50 (HepG2): 4430 nM |

Further lines, with some results ahead:

| IC50 (Huh-7 [1]) | IC50 [2] | IC50 [3] | SMILES | also measured |
| --- | --- | --- | --- | --- |
| 221 nM | – | > 3000 nM | C=CC(=O)Nc1ccccc1-c1n[nH]c2ccc(OC(C)c3c(Cl)cncc3Cl)cc12 (racemic) | – |
| > 3000 nM | 764 nM | – | C=CC(=O)Nc1ccccc1-c1n[nH]c2ccc(OCc3c(Cl)cccc3Cl)cc12 | – |
| 17 nM | 2.2 nM | > 3000 nM | C=CC(=O)Nc1cc(N2CCOCC2)ccc1-c1n[nH]c2ccc(O[C@H](C)c3c(Cl)cncc3Cl)cc12 | IC50 [4]: > 10000 nM; IC50 (BaF3 [5]): 2 nM; half-life [6]: 1.37 min |
| > 3000 nM | – | – | C=CC(=O)Nc1ccccc1-c1n[nH]c2ccc(O[C@@H](C)c3c(Cl)cncc3Cl)cc12 | – |
| 20 nM | 2.5 nM | > 3000 nM | C=CC(=O)Nc1ccc(N2CCOCC2)cc1-c1n[nH]c2ccc(O[C@H](C)c3c(Cl)cncc3Cl)cc12 | IC50 [4]: > 10000 nM; IC50 (BaF3 [5]): 3 nM; half-life [6]: 2.73 min |
| 48 nM | 3.5 nM | > 3000 nM | C=CC(=O)Nc1cc2c(cc1-c1n[nH]c3ccc(O[C@H](C)c4c(Cl)cncc4Cl)cc13)CN(S(C)(=O)=O)C2 | – |
| 80 nM | – | > 3000 nM | C=CC(=O)Nc1ccccc1-c1n[nH]c2ccc(O[C@H](C)c3c(Cl)cncc3Cl)cc12 | – |
| 190 nM | 3.5 nM | > 3000 nM | C=CC(=O)Nc1cc(F)ccc1-c1n[nH]c2ccc(O[C@H](C)c3c(Cl)cncc3Cl)cc12 | – |
| 275 nM | 6.2 nM | > 3000 nM | C=CC(=O)Nc1cc2c(cc1-c1n[nH]c3ccc(O[C@H](C)c4c(Cl)cncc4Cl)cc13)CN(CCO)CC2 | – |
| 859 nM | – | > 3000 nM | C=CC(=O)Nc1cc2c(cc1-c1n[nH]c3ccc(O[C@H](C)c4c(Cl)cncc4Cl)cc13)CN(C(=O)OC(C)(C)C)C2 | – |
| 50 nM | 2.7 nM | > 3000 nM | C=CC(=O)Nc1cc2c(cc1-c1n[nH]c3ccc(O[C@H](C)c4c(Cl)cncc4Cl)cc13)CN(C)C2 | – |
